pIC50: −log10 of the molar value. Like-named read-outs stand apart in the source and are kept apart here.
How the values were obtained:
P. falciparum NF54 = assay: In vitro microplate assay against P. falciparum (3H-hypoxanthine incorporation); type: cell-based, Plasmodium falciparum; conditions: for S.I. = IC50 (Cyt.)/IC50 (P.f.NF54): L-6 cells vs P.f. NF54; for pIC50: average of four determinations, read-out: P.f. NF54 IC50
Method: In vitro activity against the erythrocytic stages of P. falciparum was determined using a ^3H-hypoxanthine incorporation assay, using the drug sensitive NF54 strain [37]. […] The 96-well plates were incubated in a humidified atmosphere at 37 °C, 4% CO2, 3% O2 and 93% N2. After 48 h, 0.05 mL of ^3H-hypoxanthine (=0.5 µCi) was added to each well of the plate. The plates were incubated for a further 24 h under the same conditions. The plates were then harvested with a Betaplate cell harvester (Wallac, Zurich, Switzerland). The red blood cells were transferred onto a glass fiber filter and washed with distilled water. The dried filters were inserted into a plastic foil with 10 mL of scintillation fluid and counted in a Betaplate liquid scintillation counter (Wallac, Zurich, Switzerland). The IC50 values were calculated from sigmoidal inhibition curves by linear regression using Microsoft Excel. Chloroquine (Sigma C6628) was used as control.

[1] = In vitro cytotoxicity with L-6 cells (resazurin); type: cell-based, rat; conditions: rat
Method: Serial drug dilutions of 11 3-fold dilution steps covering a range from 100 to 0.002 μg/mL were prepared. After 70 h of incubation, the plates were inspected under an inverted microscope to assure the growth of the controls and sterile conditions. […] The plates were read with a Spectramax Gemini XS microplate fluorometer (Molecular Devices Cooperation, Sunnyvale, CA, USA) using an excitation wavelength of 536 nm and an emission wavelength of 588 nm. The IC50 values were calculated by linear regression from the sigmoidal dose inhibition curves using SoftmaxPro software Version 8.2.1 (Molecular Devices Cooperation, Sunnyvale, CA, USA). Podophyllotoxin (Sigma P4405) was used as control.

[2] = Plasmodium falciparum, NF54, chloroquine-sensitive strain NF54
[3] = chloroquine-sensitive strain NF54

Row | SMILES | S.I. = IC50 (Cyt.)/IC50 (P.f.NF54) (P. falciparum NF54) | pIC50 (P. falciparum NF54; [2]) | melting point [°C] | pIC50 (P. falciparum NF54; [3]) | IC50 at 72 h [1] [µM]
1 | O=C(Nc1nonc1-c1ccc(Cl)cc1)c1cccc(F)c1 [Compound 46, N-[4-(4-Chlorophenyl)-1,2,5-oxadiazol-3-yl]-3-fluorobenzamide] | 1.155 | 5.00 | 180 | – | 11.7
2 | O=C(Nc1nonc1-c1ccc(Cl)cc1)c1cccc(C(F)(F)F)c1 [Compound 48, N-[4-(4-Chlorophenyl)-1,2,5-oxadiazol-3-yl]-3-(trifluoromethyl)benzamide] | 0.599 | 4.75 to 5.07 | – | 5.07 | 5.06
3 | COc1ccc(C(=O)Nc2nonc2-c2ccc([N+](=O)[O-])cc2)cc1Cl [Compound 53, 3-Chloro-4-methoxy-N-[4-(4-nitrophenyl)-1,2,5-oxadiazol-3-yl]benzamide] | – | 6.49 | 261 | – | 3.35
4 | COc1ccc(C(=O)Nc2nonc2-c2cccc([N+](=O)[O-])c2)cc1Cl [Compound 54, 3-Chloro-4-methoxy-N-[4-(3-nitrophenyl)-1,2,5-oxadiazol-3-yl]benzamide] | 0.932 | 5.23 | 248 | – | 5.52
5 | Nc1ccc(-c2nonc2NC(=O)c2ccccc2)cc1 [Compound 55, N-[4-(4-Aminophenyl)-1,2,5-oxadiazol-3-yl]benzamide] | 16.62 | 5.13 | 169 | – | 123
6 | Cc1cccc(C(=O)Nc2nonc2-c2ccc(N)cc2)c1 [Compound 56, N-[4-(4-Aminophenyl)-1,2,5-oxadiazol-3-yl]-3-methylbenzamide] | 15.70 | 5.17 | 159 | – | 107
7 | Nc1ccc(-c2nonc2NC(=O)c2cccc(F)c2)cc1 [Compound 57, N-[4-(4-Aminophenyl)-1,2,5-oxadiazol-3-yl]-3-fluorobenzamide] | 18.90 | 4.98 | 189 | – | 198

Second part, led by results:

Row | S.I. = IC50 (Cyt.)/IC50 (P.f.NF54) (P. falciparum NF54) | pIC50 (P. falciparum NF54; [2]) | melting point [°C] | pIC50 (P. falciparum NF54; [3]) | SMILES | IC50 at 72 h [1] [µM]
8 | 3.548 | 5.03 | 154 | – | Nc1ccc(-c2nonc2NC(=O)c2cccc(C(F)(F)F)c2)cc1 [Compound 58, N-[4-(4-Aminophenyl)-1,2,5-oxadiazol-3-yl]-3-(trifluoromethyl)benzamide] | 32.9
9 | 31.54 | 5.50 | 250 | – | COc1ccc(C(=O)Nc2nonc2-c2ccc(N)cc2)cc1Cl [Compound 59, N-[4-(4-Aminophenyl)-1,2,5-oxadiazol-3-yl]-3-chloro-4-methoxybenzamide] | 98.9
10 | 4.039 | – | 178 | – | Nc1cccc(-c2nonc2NC(=O)c2ccccc2)c1 [Compound 60, N-[4-(3-Aminophenyl)-1,2,5-oxadiazol-3-yl]benzamide] | 217
11 | 6.107 | – | 163 | 4.50 | Nc1cccc(-c2nonc2NC(=O)c2cccc(F)c2)c1 [Compound 62, N-[4-(3-Aminophenyl)-1,2,5-oxadiazol-3-yl]-3-fluorobenzamide] | 195
12 | 1.201 | – | – | – | Nc1cccc(-c2nonc2NC(=O)c2cccc(C(F)(F)F)c2)c1 [Compound 63, N-[4-(3-Aminophenyl)-1,2,5-oxadiazol-3-yl]-3-(trifluoromethyl)benzamide] | 21.2

From publication PMC10572347, “Structure–Activity Relationships and Antiplasmodial Potencies of Novel 3,4-Disubstituted 1,2,5-Oxadiazoles” (International Journal of Molecular Sciences, 2023)
